Measurements taken from patent US8637043B2, “Compositions useful as ligands for the formyl peptide receptor like 1 receptor and methods of use thereof” (Chemocentryx, Inc., priority 2001, dated 2014).
Ends that are not written are not given here.

T1: human FPRL1 (Homo sapiens, UniProt P25090)
T1 construct: Full length cDNA encoding FPRL1 was cloned, using the polymerase chain reaction (PCR), from genomic DNA isolated from undifferentiated HL-60 cells; expressed in transfected cells; linearized FPRL1/pcDNA3.1, electroporation
T1 sequence (P25090 1-351): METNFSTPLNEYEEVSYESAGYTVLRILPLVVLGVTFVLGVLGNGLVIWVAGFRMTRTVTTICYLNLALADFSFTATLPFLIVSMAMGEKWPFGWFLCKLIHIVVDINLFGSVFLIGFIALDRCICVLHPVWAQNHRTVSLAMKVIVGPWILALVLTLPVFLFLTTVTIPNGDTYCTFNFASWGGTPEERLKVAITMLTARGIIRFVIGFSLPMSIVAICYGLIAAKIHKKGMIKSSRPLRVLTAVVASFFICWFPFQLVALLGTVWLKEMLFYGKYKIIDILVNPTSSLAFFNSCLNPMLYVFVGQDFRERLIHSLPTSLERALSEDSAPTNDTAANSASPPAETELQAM

B1: CKβ8-1(1-116): alternatively spliced form of CKβ8, 116 amino acids, human recombinant chemokine (protein, listed as Homo sapiens)
chain: RVTKDAETEFMMSKLPLENPVLLDMLWRRKIGPQMTLSHAAGFHATSADCCISYTPRSIPCSLLESYFETNSECSKPGVIFLTKKGRRFCANPSDKQVQVCMRMLKLDTRIKTRKN
B2: CKβ8-1(25-116): novel NH2-terminal truncated form of CKβ8-1, SEQ ID NO: 16, human recombinant chemokine (protein, listed as Homo sapiens)
chain: MLWRRKIGPQMTLSHAAGFHATSADCCISYTPRSIPCSLLESYFETNSECSKPGVIFLTKKGRRFCANPSDKQVQVCMRMLKLDTRIKTRKN

How the values were obtained:
human FPRL1 = biological target: T1, human FPRL1; assay: Calcium flux in FPRL1-L1.2 transfectants; assay type: cell-based; conditions: for Designation and FPRL1 Activity: qualitative rating high, moderate, low, see Example 9; for Notes: activity: qualitative rating, Table 6; for calcium release / mobilization: FPRL1 expressing L1.2 cells
Protocol: (§1) Ca^2+ mobilization responses were performed using the intracellular ratiometric fluorescent dye, lndo-1. Cells were loaded with Indo-1/AM (3 μM; Molecular Probes, Eugene, Oreg.) in culture medium (45 min, 20° C., 10^7 cells/ml). After dye loading, cells were washed once with 10 ml PBS) and resuspended at 10^6 cell/ml in HBSS containing 1% FBS. Cytosolic [Ca^2+] release was determined using excitation at 350 nm using a Photon Technology International fluorimeter (excitation at 350 nm, ratioed dual emission at 400 and 490 nm).
The functional activities of CKβ8-1 (25-116) were investigated in human FPRL1-L1.2 transfectants and in native L1.2 cells. Stable expression of formyl peptide-like receptor 1 (FPRL1) in L.1.2 cell was obtained as follows. Full length cDNA encoding FPRL1 was cloned, using the polymerase chain reaction (PCR), from genomic DNA isolated from undifferentiated HL-60 cells. […] Twenty micrograms of the FPRL1/pcDNA3.1 construct were linearized by digestion with Bsm1 (New England Biolabs, Beverly, Mass.) and used to transfect the murine B cell line L1.2 as follows. Twenty five million cells were washed twice and resuspended in 0.8 ml of PBS. The cells were incubated for 10 min at room temperature with the linearized FPRL/pcDNA3.1 construct DNA and transferred to a 0.4-cm cuvette, and a single electroporation pulse was applied at 250 V, 960 μF. Electroporated cells were incubated for 10 min at room temperature and transferred to culture at 37° C. in RPMI supplemented with 10% FCS. Geneticin (G418) was added to a final concentration of 800 μg/ml 48 h posttransfection and the cells plated into 96-well plates at 25,000 cells/well. After 2-3 weeks under drug selection, stable geneticin-resistant FPLR1 expressing cells were assessed for their ability to mobilize Ca^++ in response to SHAAGtide or CKbeta 8-1 at concentrations of 1 to 1000 nM.
A calcium flux test was performed on these transfectants using the method described in Example 1.
Stable expression of human FPRL1 in L1.2 cells was obtained as in Example 6. Calcium flux tests were conducted on the transfectants using the method described in Example 1. Chemokines (CKβ8(1-99), CKβ8(25-99), CKβ8-1(1-116) and CKβ8-1(25-116), were prepared as in Example 1. W peptides 1 and 2 were obtained as in Example 6. In addition, and the following SHAAGtide sequences and truncated variants (prepared as in Example 8) were tested:
All ligands were added in a dose response manner and the peak calcium flux response determined.

mature Dendritic Cells = assay: Calcium mobilization, mature dendritic cells; assay type: cell-based, human
Protocol: Human recombinant CKβ8-1(25-116) chemokine was obtained from R&D Systems (Minneapolis, Minn.). The peptide SHAAGtides SEQ ID NO:1 and SEQ ID NO:6 and a control protein (the reverse sequence of SEQ ID NO:1) were synthesized and HPLC-purified using routine techniques as described in Sambrook et al., 1989, and Ausubel et al., 1999.
Immature DCs were derived by culturing CD14+ monocytes in the presence of GM-CSF and IL4. Briefly, monocytes were cultured in a T-175 flask at 10^6 cells/ml in RPMI/10% FCS. Recombinant human GM-CSF and IL4 were added on day 0, 2, 4 and 6 to a final concentration of 1000 u/ml and 500 u/ml, respectively. Cells were harvested on day 7 as immature DCs and characterized for surface protein expression by FACS analysis. DC maturation was carried out by culturing day 6 immature DCs in macrophage-conditioned medium (MCM). Briefly, day 6 immature DCs were harvested by centrifugation and resuspended in MCM at 10^6 cells/ml. The medium was supplemented with 1000 u/ml of GM-CSF and 500 u/ml IL4. After three more days of culture, cells were harvested as mature DCs and characterized by surface protein expression flow cytometry.
MCM was prepared as follows: PBMCs isolated from buffy coat were incubated at 37° C. in a plastic flask pre-coated with 10 mg/ml human IgG (Sigma, St Louis, Mo.) for 30 minutes. After 30 minutes, non-adherent cells were removed and adherent cells were washed three times with DPBS, then cultured in RPMI/10% human serum. Conditioned-medium was collected after 24 hours. TNF-α concentration, which is critical for DC maturation, was determined by using a TNF-α ELISA kit (R&D Systems, Minn.). The final TNF-α level in MCM was adjusted to 50 u/mi by mixing with RPMI/10% human serum, and was stored at −80 freezer until use.
as §1, with “an” for “the”, “Indo-1.” for “lndo-1.”, “Probes (Eugene, Oreg.))” for “Probes, Eugene, Oreg.)”, “cells/mi).” for “cells/ml).”, “(10” for “with 10”

| Molecule | Designation and FPRL1 Activity (human FPRL1) | Notes: activity (human FPRL1) | calcium flux (mature Dendritic Cells) | calcium release / mobilization (human FPRL1) | calcium release / mobilization (human FPRL1; listed as CKβ8(1-116)) | calcium release / mobilization (human FPRL1; listed as CKβ8(25-116)) |
| --- | --- | --- | --- | --- | --- | --- |
| MLWRRKIGPQMTLSHAAG [SEQ ID NO: 1] | high | high | partially active |  |  |  |
| MLWRRKIGPQMTLSHAAY [SEQ ID NO: 6] | high | high | partially active |  |  |  |
| B1 |  |  |  | no activity | did not give significant mobilization |  |
| B2 |  |  | partially active | stimulated calcium release |  | induced calcium mobilization |
